Residue numbers refer to the chain shown, from its start. In names and notes the source's numbering stands.
T1: full-length AsphyA (Avena sativa, UniProt P06593)
T1 construct: Full-length phytochrome genes of AsPHYA; made in house; host or cells: Pichia pastoris GS115
T1 sequence (P06593 1-1129): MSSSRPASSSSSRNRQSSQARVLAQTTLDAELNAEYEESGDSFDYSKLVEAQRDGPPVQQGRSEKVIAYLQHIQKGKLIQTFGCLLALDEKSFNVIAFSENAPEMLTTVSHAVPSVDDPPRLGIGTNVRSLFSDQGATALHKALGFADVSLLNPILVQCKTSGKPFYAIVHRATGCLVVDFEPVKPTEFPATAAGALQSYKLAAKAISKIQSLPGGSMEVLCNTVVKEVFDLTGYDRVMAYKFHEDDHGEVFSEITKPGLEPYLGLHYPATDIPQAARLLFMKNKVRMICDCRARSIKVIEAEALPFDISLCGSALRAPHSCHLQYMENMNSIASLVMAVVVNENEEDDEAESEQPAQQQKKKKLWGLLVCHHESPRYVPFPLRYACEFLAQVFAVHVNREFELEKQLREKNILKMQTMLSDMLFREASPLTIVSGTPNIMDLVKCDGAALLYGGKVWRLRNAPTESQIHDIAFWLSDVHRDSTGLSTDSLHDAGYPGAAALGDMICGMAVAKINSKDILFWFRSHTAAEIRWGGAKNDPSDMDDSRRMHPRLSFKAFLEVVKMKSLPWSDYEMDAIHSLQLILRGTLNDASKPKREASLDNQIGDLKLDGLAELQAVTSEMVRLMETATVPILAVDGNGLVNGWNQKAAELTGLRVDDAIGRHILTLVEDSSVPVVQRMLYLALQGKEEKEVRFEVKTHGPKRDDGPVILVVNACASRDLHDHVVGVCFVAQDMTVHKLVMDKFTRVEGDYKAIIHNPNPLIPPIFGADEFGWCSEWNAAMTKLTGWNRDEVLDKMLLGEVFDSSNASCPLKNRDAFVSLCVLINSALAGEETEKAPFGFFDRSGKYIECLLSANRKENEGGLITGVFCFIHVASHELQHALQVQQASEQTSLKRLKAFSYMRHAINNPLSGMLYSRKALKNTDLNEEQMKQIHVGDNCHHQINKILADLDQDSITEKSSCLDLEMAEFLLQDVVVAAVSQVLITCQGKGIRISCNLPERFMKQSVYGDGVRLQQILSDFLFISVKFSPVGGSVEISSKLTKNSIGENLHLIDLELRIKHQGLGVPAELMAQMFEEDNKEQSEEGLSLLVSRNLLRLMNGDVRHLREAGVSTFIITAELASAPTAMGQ

T2: photosensory core of AsphyA (66-610) (Avena sativa, UniProt P06593)
T2 construct: the PAS-GAF-PHY photosensory core (66–610aa) were also cloned into pPIC3.5K; made in house; host or cells: Pichia pastoris GS115
T2 sequence (P06593 66-610): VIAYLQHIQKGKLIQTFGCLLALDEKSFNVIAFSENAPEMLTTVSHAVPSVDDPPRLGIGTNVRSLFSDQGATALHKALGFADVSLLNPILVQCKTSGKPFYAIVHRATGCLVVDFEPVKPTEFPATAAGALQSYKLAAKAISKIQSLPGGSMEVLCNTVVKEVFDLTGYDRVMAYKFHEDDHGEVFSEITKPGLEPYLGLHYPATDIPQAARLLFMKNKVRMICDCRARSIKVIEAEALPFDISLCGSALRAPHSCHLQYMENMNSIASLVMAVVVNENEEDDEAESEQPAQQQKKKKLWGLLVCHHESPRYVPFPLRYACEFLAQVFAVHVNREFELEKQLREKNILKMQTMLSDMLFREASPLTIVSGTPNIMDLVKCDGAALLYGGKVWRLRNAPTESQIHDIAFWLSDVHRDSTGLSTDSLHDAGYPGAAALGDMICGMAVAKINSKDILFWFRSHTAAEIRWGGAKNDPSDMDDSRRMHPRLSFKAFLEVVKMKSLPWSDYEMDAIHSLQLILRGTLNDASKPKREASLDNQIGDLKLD

B1: Avena sativa phytochrome A, full-length wild type (natural protein, UniProt P06593 1-1129, looked up)
chain: T1 sequence (P06593 1-1129)
modifications: phycocyanobilin chromophore assembled (chromophore-binding site C322)
notes: Avena sativa (oat) phytochrome A, full-length gene AsPHYA; 1129 residues by the printed construct limits (66-1129aa); Used as Pr (far-red irradiated) and Pfr (red irradiated) forms; also called AsphyA; FL-AsphyA; source: phycocyanobilin added in vitro
B2: AsphyA T418D, full length (natural protein, Avena sativa, UniProt P06593 1-1129, looked up)
chain: T1 sequence (P06593 1-1129) with T418D
modifications: phycocyanobilin chromophore assembled
notes: Avena sativa phytochrome A, full length, with T418D; source: phycocyanobilin added in vitro
B3: AsphyA K411L, full length (natural protein, Avena sativa, UniProt P06593 1-1129, looked up)
chain: T1 sequence (P06593 1-1129) with K411L
modifications: phycocyanobilin chromophore assembled
notes: Avena sativa phytochrome A, full length, with K411L; source: phycocyanobilin added in vitro
B4: GST/strep-fused Arabidopsis PIF4 (natural protein, UniProt Q8W2F3 1-430, looked up)
chain: MEHQGWSFEENYSLSTNRRSIRPQDELVELLWRDGQVVLQSQTHREQTQTQKQDHHEEALRSSTFLEDQETVSWIQYPPDEDPFEPDDFSSHFFSTMDPLQRPTSETVKPKSSPEPPQVMVKPKACPDPPPQVMPPPKFRLTNSSSGIRETEMEQYSVTTVGPSHCGSNPSQNDLDVSMSHDRSKNIEEKLNPNASSSSGGSSGCSFGKDIKEMASGRCITTDRKRKRINHTDESVSLSDAIGNKSNQRSGSNRRSRAAEVHNLSERRRRDRINERMKALQELIPHCSKTDKASILDEAIDYLKSLQLQLQVMWMGSGMAAAAASAPMMFPGVQPQQFIRQIQSPVQLPRFPVMDQSAIQNNPGLVCQNPVQNQIISDRFARYIGGFPHMQAATQMQPMEMLRFSSPAGQQSQQPSSVPTKTTDGSRLDH
notes: Arabidopsis PIF4 (NM_180050); not shown: GST, N-terminal, kept
B5: AsphyA D422R, full length (natural protein, Avena sativa, UniProt P06593 1-1129, looked up)
chain: T1 sequence (P06593 1-1129) with D422R
modifications: phycocyanobilin chromophore assembled
notes: Avena sativa phytochrome A, full length, with D422R; source: phycocyanobilin added in vitro

Key:
D422R AsphyA mutant = biological target: T3, D422R AsphyA mutant (Avena sativa, UniProt P06593, D422R); assay: Binding parameters of ATP by Scatchard plot using BODIPY-FL-ATP; details: Scatchard plot with BODIPY-FL-ATP; result in words
T3 construct: After preparing purified full-length AsphyA mutants; made in house; host or cells: Pichia pastoris GS115
Method: (§1) To estimate dissociation constant (Kd) and the number of binding sites (n) of ATP in AsphyA proteins, an ATP analogue BODIPY-FL-ATP (BODIPY FL 2′-(or-3′)-O-(N-(2-aminoethyl)urethane) adenosine triphosphate; Molecular Probes) was used. 0.5 μM AsphyA proteins were incubated with increasing concentration of BODIPY-FL-ATP (0.5–5 μM) for 10 min at 30 °C, and free (unbound) ATP analogue was separated from the ATP analogue-protein complex by using Amicon Ultra Centrifugal Filter with MWCO of 10,000 Da for 5 min at 4,000g. The spectrophotometric absorbance was then measured to determine the BODIPY-FL-ATP concentrations within flow-through and the complex solutions by using Shimadzu UV-1800 spectrophotometer. […] The concentrations of BODIPY-FL-ATP were also double-checked by measuring the emission intensity of BODIPY fluorophore at the excitation wavelength of 500 nm and emission wavelength of 515 nm. The fluorescence of free BODIPY-FL-ATP in the absence of any protein component was used as a linear standard curve. The Kd and n values were then calculated by a Scatchard plot of r/[BODIPY-FL-ATP]free versus r, where r is the molar ratio of [BODIPY-FL-ATP]bound to [AsphyA]total.
(§2) Supplementary Figure 12. Determination of binding parameters of ATP in AsphyA proteins. The number of binding sites (n) and dissociation constant (Kd) of ATP in AsphyA proteins were determined by Scatchard plots using an ATP analogue, BODIPY-FL-ATP (BODIPY® FL 2′-(or-3′)-O-(N-(2-aminoethyl)urethane) adenosine triphosphate). The n and Kd values were calculated from the slopes (-1/Kd) and x-axis intercepts (n) of the Scatchard plot of r/[BODIPY-FL-ATP]free versus r, where r was the molar ratio of [BODIPY-FL-ATP]bound to [AsphyA]total. The n values of full-length (FL) AsphyA and photosensory core (66-610) were both calculated at around one per polypeptide, and the Kd values were calculated at approximately 0.87 × 10^-6 M for FL-AsphyA, 0.72 × 10^-6 M for […]
(§3) level, possibly due to too low ATP binding.
(§4) (1 picture or pasted object on this page, not shown here)

K411L AsphyA mutant = biological target: T4, K411L AsphyA mutant (Avena sativa, UniProt P06593, K411L); assay: as above
T4 construct: After preparing purified full-length AsphyA mutants; made in house; host or cells: Pichia pastoris GS115
Method: as §1, §2, §3, §4

T418D AsphyA mutant = biological target: T5, T418D AsphyA mutant (Avena sativa, UniProt P06593, T418D); assay: as above
T5 construct: After preparing purified full-length AsphyA mutants; made in house; host or cells: Pichia pastoris GS115
Method: as §1, §2, §3, §4

full-length AsphyA = biological target: T1, full-length AsphyA; assay: as above
Method: as §1, §2, §3, §4

[1] = biological target: T2, photosensory core of AsphyA (66-610); assay: as above
Method: as §1, §2, §3, §4

[2] = biological target: the molecule itself; assay: SEC; size-exclusion chromatography of purified full-length AsphyA proteins; molecular masses estimated
[3] = biological target: B1; assay: pull-down; GST/strep-fused interacting protein (1.0 μg) held on glutathione resin, phytochrome (1.0 μg) in solution, Pr and Pfr forms both tested; 60 min at 4 °C in pull-down buffer (100 mM Tris-HCl pH 7.8, 1 mM EDTA, 150 mM NaCl, 100 μg/ml BSA); western blot with oat22 and anti-GST; details: both partners purified
[4] = Scatchard plot with BODIPY-FL-ATP
[5] = Scatchard plot, 0.5 μM protein, BODIPY-FL-ATP 0.5–5 μM, 10 min at 30 °C, read-out: dissociation constant (Kd) of ATP

T5 sequence (P06593 whole entry T418D): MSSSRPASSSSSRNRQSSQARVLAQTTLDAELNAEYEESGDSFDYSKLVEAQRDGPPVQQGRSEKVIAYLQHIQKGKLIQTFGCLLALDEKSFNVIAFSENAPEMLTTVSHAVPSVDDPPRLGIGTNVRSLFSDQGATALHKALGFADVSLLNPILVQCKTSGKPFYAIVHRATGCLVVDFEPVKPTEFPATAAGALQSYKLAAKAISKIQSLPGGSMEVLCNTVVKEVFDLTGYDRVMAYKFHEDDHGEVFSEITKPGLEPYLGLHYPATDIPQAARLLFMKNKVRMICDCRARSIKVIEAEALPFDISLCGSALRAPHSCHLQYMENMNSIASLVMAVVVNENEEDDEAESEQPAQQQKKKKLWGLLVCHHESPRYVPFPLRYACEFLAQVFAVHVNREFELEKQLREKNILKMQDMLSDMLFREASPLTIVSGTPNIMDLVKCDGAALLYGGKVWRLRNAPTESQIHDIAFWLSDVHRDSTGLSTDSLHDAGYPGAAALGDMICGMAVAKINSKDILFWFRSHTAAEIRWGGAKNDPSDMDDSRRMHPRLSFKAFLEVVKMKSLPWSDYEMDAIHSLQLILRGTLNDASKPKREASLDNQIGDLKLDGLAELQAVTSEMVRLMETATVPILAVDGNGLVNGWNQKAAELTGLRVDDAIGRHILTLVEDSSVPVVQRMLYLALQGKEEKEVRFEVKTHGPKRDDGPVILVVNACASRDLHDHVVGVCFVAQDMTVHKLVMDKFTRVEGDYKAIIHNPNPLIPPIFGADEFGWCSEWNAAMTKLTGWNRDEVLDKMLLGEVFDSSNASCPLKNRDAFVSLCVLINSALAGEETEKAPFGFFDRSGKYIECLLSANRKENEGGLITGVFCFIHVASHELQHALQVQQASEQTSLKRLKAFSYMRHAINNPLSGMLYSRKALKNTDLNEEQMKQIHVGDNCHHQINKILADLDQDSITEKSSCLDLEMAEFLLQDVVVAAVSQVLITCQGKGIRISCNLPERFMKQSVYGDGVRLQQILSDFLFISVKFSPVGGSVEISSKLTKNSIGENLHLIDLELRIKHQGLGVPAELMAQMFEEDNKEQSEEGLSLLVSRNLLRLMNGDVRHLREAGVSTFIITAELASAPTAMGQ
T3 sequence (P06593 whole entry D422R): as the sequence (P06593 whole entry T418D) above, with D418T, D422R counted along it
T4 sequence (P06593 whole entry K411L): as the sequence (P06593 whole entry T418D) above, with K411L, D418T counted along it

With `CC1=CC(C)=[N+]2C1=Cc1ccc(CCC(=O)NCCNC(=O)O[C@H]3[C@@H](O)[C@H](n4cnc5c(N)ncnc54)O[C@@H]3COP(=O)(O)OP(=O)(O)OP(=O)(O)O)n1[B-]2(F)F` [BODIPY-FL-ATP, BODIPY FL 2′-(or-3′)-O-(N-(2-aminoethyl)urethane) adenosine triphosphate] as the molecule, how does the “dissociation constant (Kd) of ATP” value (D422R AsphyA mutant) read?
The value was “unable to obtain the Kd value”.

And the Kd (K411L AsphyA mutant)?
The Kd was roughly 1.32 µM.

And the Kd (T418D AsphyA mutant)?
Its Kd is roughly 4.76 µM.

And the “number of binding sites (n) of ATP” value (full-length AsphyA; [4])?
Its value is “approximately one”.

What about the Kd (full-length AsphyA; [5]) of the same molecule?
Its Kd is roughly 0.87 µM.

What about the “number of binding sites (n) of ATP” value [1, 4] of the same molecule?
Its value is “approximately one”.

What about the Kd [1, 5] of the same molecule?
The Kd was 0.72 µM.

Does B1 bind [2]?
Result: binds

B2 was tested. Which “stoichiometry N” value [2] did it give?
Its value is 2.

Which “stoichiometry N” value [2] does the source give for B3 here?
The value was 2.

Does B4 bind [3]?
Result: binds

B5 was tested. Which “stoichiometry N” value [2] did it give?
The value was 2.
